Calls of active or inactive are those of the source. The calls are words filed in the database; no cut-off is given here.
Legend:
[1] = target: Glycogen synthase kinase-3 (Sus scrofa, UniProt B2LUN4+I6LNT8); assay: Inhibition of porcine brain GSK-3alpha/beta using YRRAAVPPSPSLSRHSSPHQpSEDEEE as substrate and [gamma-33P]-ATP after 30 mins by scintillation counting
[2] = Inhibition of porcine brain CK1delta/epsilon using RRKHAAIGpSAYSITA as substrate and [gamma-33P]-ATP after 30 mins by scintillation counting; parameters: species or system Sus scrofa
[3] = target: Dual specificity tyrosine-phosphorylation-regulated kinase 1A (Homo sapiens, UniProt Q13627); assay: Inhibition of human recombinant GST-fused DYRK1A expressed in Escherichia coli using KKISGRLSPIMTEQ as substrate and [gamma-33P]-ATP after 30 mins by scintillation counting
[4] = target: Cyclin-dependent kinase 5/CDK5 activator 1 (Homo sapiens, UniProt Q00535); assay: Inhibition of human recombinant CDK5/p25 using histone H1 as substrate and [gamma-33P]-ATP after 30 mins by scintillation counting; type: protein-complex assay
Cyclin-dependent kinase 5/CDK5 activator 1, sequence (Q00535 whole entry): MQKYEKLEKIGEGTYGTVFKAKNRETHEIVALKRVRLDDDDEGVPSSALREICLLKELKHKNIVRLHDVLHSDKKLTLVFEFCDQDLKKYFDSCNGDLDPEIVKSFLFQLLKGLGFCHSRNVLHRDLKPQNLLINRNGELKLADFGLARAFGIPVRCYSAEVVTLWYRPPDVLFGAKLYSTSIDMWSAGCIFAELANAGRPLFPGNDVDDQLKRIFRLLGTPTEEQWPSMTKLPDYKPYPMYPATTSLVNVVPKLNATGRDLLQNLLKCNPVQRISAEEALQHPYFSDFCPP
Cyclin-dependent kinase 5/CDK5 activator 1, sequence (Q15078 whole entry, further chain): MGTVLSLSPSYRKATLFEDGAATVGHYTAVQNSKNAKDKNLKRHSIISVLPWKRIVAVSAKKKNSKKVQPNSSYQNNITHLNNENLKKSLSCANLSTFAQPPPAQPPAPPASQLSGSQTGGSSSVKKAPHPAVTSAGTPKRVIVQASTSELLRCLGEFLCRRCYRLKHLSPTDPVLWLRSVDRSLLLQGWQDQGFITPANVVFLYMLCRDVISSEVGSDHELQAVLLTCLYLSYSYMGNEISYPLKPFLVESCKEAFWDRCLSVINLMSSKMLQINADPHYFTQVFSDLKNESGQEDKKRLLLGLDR

MDA-MB-231 [5] = assay: cells; details: Homo sapiens, MDA-MB-231, 48 h
Description: Cytotoxicity against human MDA-MB-231 cells after 48 hrs

NCI-H727 [6] = assay: cells; details: Homo sapiens, NCI-H727, 48 h
Description: Cytotoxicity against human NCI-H727 cells after 48 hrs

Huh-7 [7] = assay: cells; details: Homo sapiens, Huh-7, 48 h
Description: Cytotoxicity against human HuH7 cells after 48 hrs

PC-3 [8] = assay: cells; details: Homo sapiens, PC-3, 48 h
Description: Cytotoxicity against human PC3 cells after 48 hrs

Caco-2 [9] = assay: cells; details: Homo sapiens, Caco-2, 48 h
Description: Cytotoxicity against human Caco2 cells after 48 hrs

HCT-116 [10] = assay: cells; details: Homo sapiens, HCT-116, 48 h
Description: Cytotoxicity against human HCT116 cells after 48 hrs

[11] = Cytotoxicity against human skin fibroblasts cells after 48 hrs; details: Fibroblast
Caco-2 [12] = assay: Cell cycle arrest in human Caco2 cells assessed as accumulation at G1 phase at 0.6 uM after 24 hrs; type: functional, cell-based
Mus musculus [13] = assay: Toxicity in NMRI mouse assessed as food consumption at 1 to 10 mg/kg, ip qd for 2 weeks; type: organism-based; parameters: dose 1-10 mg/kg, route intraperitoneal; details: in vivo, 336 h
Mus musculus [14] = assay: Toxicity in NMRI mouse assessed as mortality at 1 to 10 mg/kg, ip qd for 2 weeks; type: organism-based; parameters: dose 1-10 mg/kg, route intraperitoneal; details: in vivo, 336 h
HCT-116 [15] = assay: Induction of apoptosis in human HCT116 cells assessed as activation of caspase-3 at 0.6 uM after 24 hrs; type: functional, cell-based
Mus musculus [16] = assay: Toxicity in NMRI mouse assessed as macroscopic examination of organs at 1 to 10 mg/kg, ip qd for 2 weeks; type: organism-based; parameters: dose 1-10 mg/kg, route intraperitoneal; details: in vivo, 336 h
MDA-MB-231 [17] = assay: Cell cycle arrest in human MDA-MB-231 cells assessed as accumulation at G1 phase at 0.6 uM after 24 hrs; type: functional, cell-based
HCT-116 [18] = assay: Antitumor activity against human HCT116 cells xenografted in nude NMRI mouse assessed as tumor reduction at 10 mg/kg, ip administered 3 times in a week for 4 weeks by whole-body bioluminescent imaging; type: functional; parameters: scale not given: the % may be the effect or the level left; details: route intraperitoneal
HCT-116 [19] = assay: Cell cycle arrest in human HCT116 cells assessed as accumulation at G1 phase at 0.6 uM after 24 hrs; type: functional, cell-based
Mus musculus [20] = assay: Toxicity in NMRI mouse assessed as weight loss at 1 to 10 mg/kg, ip qd for 2 weeks; type: organism-based; parameters: dose 1-10 mg/kg, route intraperitoneal; details: in vivo, 336 h
Huh-7 [21] = assay: Cell cycle arrest in human HuH7 cells assessed as accumulation at G1 phase at 0.6 uM after 24 hrs; type: functional, cell-based
NCI-H727 [22] = assay: Cell cycle arrest in human NCI-H727 cells assessed as accumulation at G1 phase at 0.6 uM after 24 hrs; type: functional, cell-based
[23] = target: Cyclin-dependent kinase 1 (Homo sapiens, UniProt P06493); assay: Inhibition of CDK1
Cyclin-dependent kinase 1, sequence (P06493 whole entry): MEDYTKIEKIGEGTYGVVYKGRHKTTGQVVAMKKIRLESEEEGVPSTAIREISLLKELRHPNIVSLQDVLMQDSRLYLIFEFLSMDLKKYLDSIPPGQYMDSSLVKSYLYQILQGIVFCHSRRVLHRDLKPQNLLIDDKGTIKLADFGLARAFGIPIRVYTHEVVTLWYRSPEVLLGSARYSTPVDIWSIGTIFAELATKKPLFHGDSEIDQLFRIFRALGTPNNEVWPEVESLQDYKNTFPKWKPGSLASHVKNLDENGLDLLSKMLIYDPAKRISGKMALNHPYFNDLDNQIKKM

Mus musculus [24] = assay: Toxicity in NMRI mouse assessed as blood formulation at 1 to 10 mg/kg, ip qd for 2 weeks; type: organism-based; parameters: dose 1-10 mg/kg, route intraperitoneal; details: in vivo, 336 h
HCT-116 [25] = assay: Antitumor activity against human HCT116 cells xenografted in nude NMRI mouse assessed as tumor reduction at 10 mg/kg, ip administered 3 times in a week for 4 weeks; type: functional; parameters: scale not given: the % may be the effect or the level left; details: route intraperitoneal
PC-3 [26] = assay: Cell cycle arrest in human PC3 cells assessed as accumulation at G1 phase at 0.6 uM after 24 hrs; type: functional, cell-based
PC-3 [27] = assay: Cell cycle arrest in human PC3 cells assessed as accumulation at G1 phase at 1 uM after 24 hrs; type: functional, cell-based
HCT-116 [28] = assay: Cell cycle arrest in human HCT116 cells assessed as accumulation at G1 phase at 1 uM after 24 hrs; type: functional, cell-based
HCT-116 [29] = assay: Induction of apoptosis in human HCT116 cells assessed as activation of caspase-3 at 1 uM after 24 hrs; type: functional, cell-based
MDA-MB-231 [30] = assay: Cell cycle arrest in human MDA-MB-231 cells assessed as accumulation at G1 phase at 1 uM after 24 hrs; type: functional, cell-based
Huh-7 [31] = assay: Cell cycle arrest in human HuH7 cells assessed as accumulation at G1 phase at 1 uM after 24 hrs; type: functional, cell-based
Caco-2 [32] = assay: Cell cycle arrest in human Caco2 cells assessed as accumulation at G1 phase at 1 uM after 24 hrs; type: functional, cell-based
NCI-H727 [33] = assay: Cell cycle arrest in human NCI-H727 cells assessed as accumulation at G1 phase at 1 uM after 24 hrs; type: functional, cell-based

SMILES: O=C(Nc1cc(-c2ccccc2)on1)Nc1cccc2c1C1CCCCN1C2=O (stereo not given)
- IC50 [1]: 0.27 µM

SMILES: O=C(Nc1cccc2c1C1CCCCN1C2=O)Nc1ncc(F)cc1F (stereo not given)
- IC50 [2]: > 10000 nM
- IC50 [1]: 0.2 µM
- IC50 [3]: > 10 µM
- IC50 [4]: 260 nM

SMILES: O=C(Nc1cccc2c1C1CCCCN1C2=O)Nc1ncccc1O (stereo not given)
- IC50 (MDA-MB-231 [5]): 2000 nM
- IC50 (NCI-H727 [6]): 800 nM
- IC50 (Huh-7 [7]): 500 nM
- IC50 (PC-3 [8]): 400 nM
- IC50 (Caco-2 [9]): 6000 nM
- IC50 (HCT-116 [10]): 1000 nM
- IC50 [2]: 1500 nM
- IC50 [1]: 0.051 µM
- IC50 [3]: 1.8 µM
- IC50 [4]: 37 nM
- IC50 [11]: 3000 nM

SMILES: O=C(Nc1ccccc1)Nc1cccc2c1C1CCCCN1C2=O (stereo not given)
- IC50 [1]: > 10 µM
- IC50 [3]: > 10 µM
- IC50 [4]: > 10000 nM

SMILES: O=C(Nc1ccccn1)Nc1cccc2c1C1CCCCN1C2=O (stereo not given)
- Activity (Caco-2 [12]): Active
- Activity (Mus musculus [13]): Non-toxic
- Activity (Mus musculus [14]): Non-toxic
- Activity (HCT-116 [15]): Active
- Activity (Mus musculus [16]): Non-toxic
- Activity (MDA-MB-231 [17]): Active
- Activity (HCT-116 [18]): 51%
- Activity (HCT-116 [19]): Active
- Activity (Mus musculus [20]): Non-toxic
- Activity (Huh-7 [21]): Active
- Activity (NCI-H727 [22]): Active
- IC50 [23]: 75 nM
- Activity (Mus musculus [24]): Non-toxic
- Activity (HCT-116 [25]): 45.3%
- Activity (PC-3 [26]): Active

SMILES: O=C(Nc1cccc(Br)n1)Nc1cccc2c1C1CCCCN1C2=O (stereo not given)
- IC50 (MDA-MB-231 [5]): > 25000 nM
- IC50 (NCI-H727 [6]): > 25000 nM
- IC50 (Huh-7 [7]): > 25000 nM
- IC50 (PC-3 [8]): > 25000 nM
- IC50 (Caco-2 [9]): > 25000 nM
- IC50 (HCT-116 [10]): > 25000 nM
- IC50 [1]: 0.043 µM
- IC50 [11]: > 25000 nM

SMILES: O=C(Nc1ccc2cccc(O)c2n1)Nc1cccc2c1C1CCCCN1C2=O (stereo not given)
- IC50 [1]: 0.15 µM
- IC50 [3]: > 10 µM
- IC50 [4]: 700 nM

SMILES: O=C(Nc1cnccn1)Nc1cccc2c1C1CCCCN1C2=O (stereo not given)
- Activity (PC-3 [27]): Active
- Activity (HCT-116 [28]): Active
- Activity (HCT-116 [29]): Active
- Activity (MDA-MB-231 [30]): Active
- Activity (Huh-7 [31]): Active
- Activity (Caco-2 [32]): Active
- Activity (NCI-H727 [33]): Active

SMILES: Cn1ccc(NC(=O)Nc2cccc3c2C2CCCCN2C3=O)n1 (stereo not given)
- IC50 [1]: 0.31 µM

SMILES: O=C(Nc1nc2ccccc2s1)Nc1cccc2c1C1CCCCN1C2=O (stereo not given)
- IC50 [1]: 3.5 µM
- IC50 [3]: > 10 µM

SMILES: Cc1nc(NC(=O)Nc2cccc3c2C2CCCCN2C3=O)cs1 (stereo not given)
- IC50 [1]: 0.12 µM

SMILES: O=C(Nc1cccc(N2CCCCC2)n1)Nc1cccc2c1C1CCCCN1C2=O (stereo not given)
- IC50 [2]: > 10000 nM
- IC50 [1]: 0.36 µM
- IC50 [3]: > 10 µM
- IC50 [4]: > 10000 nM

SMILES: O=C(Nc1cccc2c1C1CCCCN1C2=O)NC1CCCCC1 (stereo not given)
- IC50 [1]: > 10 µM
- IC50 [3]: > 10 µM
- IC50 [4]: > 10000 nM

SMILES: O=C(Nc1cccc2c1C1CCCCN1C2=O)Nc1nc(Cl)c(Cl)c(Cl)c1Cl (stereo not given)
- IC50 [1]: 4.3 µM
- IC50 [3]: > 10 µM
- IC50 [4]: 10000 nM

SMILES: O=C(Nc1ccc(Br)cn1)Nc1cccc2c1C1CCCCN1C2=O (stereo not given)
- IC50 [1]: 0.076 µM
- IC50 [3]: > 10 µM

SMILES: O=C(Nc1ccc(-c2ccccc2)cn1)Nc1cccc2c1C1CCCCN1C2=O (stereo not given)
- IC50 [2]: > 10000 nM
- IC50 [1]: 0.14 µM
- IC50 [3]: > 10 µM
- IC50 [4]: 4000 nM

SMILES: O=C(Nc1cc2ccccc2cn1)Nc1cccc2c1C1CCCCN1C2=O (stereo not given)
- IC50 (MDA-MB-231 [5]): 3000 nM
- IC50 (NCI-H727 [6]): 3000 nM
- IC50 (Huh-7 [7]): 2000 nM
- IC50 (PC-3 [8]): 2000 nM
- IC50 (Caco-2 [9]): 1000 nM
- IC50 (HCT-116 [10]): 1000 nM
- IC50 [1]: 0.17 µM
- IC50 [3]: > 10 µM
- IC50 [4]: 68 nM
- IC50 [11]: 4000 nM

SMILES: O=C(Nc1ccc(O)cn1)Nc1cccc2c1C1CCCCN1C2=O (stereo not given)
- IC50 [2]: ≥ 10000 nM
- IC50 [1]: 4 µM
- IC50 [3]: > 10 µM
- IC50 [4]: 1300 nM

SMILES: O=C(Nc1cscn1)Nc1cccc2c1C1CCCCN1C2=O (stereo not given)
- IC50 [1]: 0.76 µM

SMILES: O=C(Nc1ccncn1)Nc1cccc2c1C1CCCCN1C2=O (stereo not given)
- IC50 [1]: 0.38 µM
- IC50 [3]: > 10 µM

SMILES: O=C(Nc1csc(-c2ccncc2)n1)Nc1cccc2c1C1CCCCN1C2=O (stereo not given)
- IC50 [1]: 0.13 µM

SMILES: COc1cccnc1NC(=O)Nc1cccc2c1C1CCCCN1C2=O (stereo not given)
- IC50 [2]: 2600 nM
- IC50 [1]: 1.3 µM
- IC50 [3]: 8.1 µM
- IC50 [4]: 590 nM

SMILES: O=C(Nc1cc(O)c2ccccc2n1)Nc1cccc2c1C1CCCCN1C2=O (stereo not given)
- IC50 [1]: 1.2 µM
- IC50 [3]: 5.6 µM
- IC50 [4]: 10000 nM

SMILES: Cc1cc(NC(=O)Nc2cccc3c2C2CCCCN2C3=O)no1 (stereo not given)
- IC50 [1]: 0.33 µM

SMILES: O=C(Nc1ncccn1)Nc1cccc2c1C1CCCCN1C2=O (stereo not given)
- IC50 [1]: 0.75 µM

SMILES: O=C(Nc1cc(Br)ccn1)Nc1cccc2c1C1CCCCN1C2=O (stereo not given)
- IC50 (MDA-MB-231 [5]): 500 nM
- IC50 (NCI-H727 [6]): 400 nM
- IC50 (Huh-7 [7]): 5000 nM
- IC50 (PC-3 [8]): 100 nM
- IC50 (Caco-2 [9]): 100 nM
- IC50 (HCT-116 [10]): 100 nM
- IC50 [2]: 1300 nM
- IC50 [1]: 0.022 µM
- IC50 [3]: 7.6 µM
- IC50 [4]: 25 nM
- IC50 [11]: 500 nM

SMILES: O=C(Nc1cc[nH]n1)Nc1cccc2c1C1CCCCN1C2=O (stereo not given)
- IC50 [1]: 0.47 µM

SMILES: O=C(Nc1cccc(F)n1)Nc1cccc2c1C1CCCCN1C2=O (stereo not given)
- IC50 (MDA-MB-231 [5]): 90 nM
- IC50 (NCI-H727 [6]): 500 nM
- IC50 (Huh-7 [7]): 120 nM
- IC50 (PC-3 [8]): 200 nM
- IC50 (Caco-2 [9]): 150 nM
- IC50 (HCT-116 [10]): 90 nM
- IC50 [1]: 0.026 µM
- IC50 [4]: 90 nM
- IC50 [11]: 400 nM
